# Reference: article PMC6832524, “A Nature-Inspired Design Yields a New Class of Steroids Against Trypanosomatids” (Molecules, 2019)
# Where two headings read alike, the source gives them in different places.
# Key:
# [1] = test system: L. infantum .uy (parasites isolated from two dogs in the first Leishmaniasis outbreak in Uruguay); assay: in vitro activity against L. infantum isolated from dogs in Uruguay; format: cell-based, Leishmania infantum; conditions: read-out: IC50± %SD (µM) promastigotes L. infantum uy*p/c
# [2] = test system: promastigotes L. braziliensis/ L. amazonensis; assay: in vitro anti-Leishmania activity, promastigotes (Table 1S); format: cell-based; conditions: read-out: IC50 ± %SD (µM) promastigotes L. braziliensis/ L. amazonensis
# [3] = test system: T. cruzi epimastigotes, Tulahuen 2 strain (genotype TcVI); assay: in vitro anti-T. cruzi activity, epimastigote growth (absorbance 600 nm); format: cell-based, Trypanosoma cruzi
# Protocol: Control parasites were cultivated in 0.4% DMSO. Each concentration of the compound was evaluated in duplicate.
# [4] = test system: L. infantum (MHOM/BR/2002/LPC-RPV) promastigotes; assay: in vitro anti-Leishmania activity, promastigotes, resazurin; format: cell-based, Leishmania infantum
# [5] = test system: L. infantum .uy (parasites isolated from two dogs in the first Leishmaniasis outbreak in Uruguay); assay: in vitro activity against L. infantum isolated from dogs in Uruguay; format: cell-based, Leishmania infantum; conditions: for IC50: Leishmania infantum, read-out: IC50 ± %SD (µM) L. infantum .uy
# Protocol: Compounds were dissolved in dimethylsulfoxide (DMSO).
# For assessing the amastigote form of all Leishmania strains were cultured in the RPMI described above. Parasites were seeded at 1 × 10^6 cells/mL and at each time point counted at least five times to obtain a growth curve. […] Control conditions of parasites without drug (100% growth) and medium without parasites were included. After 72 h at 28 °C parasite viability was determined by the resazurin method described. Infection with L. infantum. THP-1 monocytes (ATCC®TIB-202™) were grown following ATCC recommendations and seeded at 30,000 cells/well onto 18-mm round glass coverslips in 12 wells. For stimulation cells were incubated with 100 nM of PMA for 48 h, PMA was washed and cells left with growth media for 24 h more after incubation with parasites. 30,000 parasites/well were added and left to interact. After 48 h, coverslips were washed with PBS, fixed with 95% (v/v) ethanol, and stained with Fluoroshield™ with DAPI (Sigma). Infectivity was assessed considering invasion and replication capacity counting infected cells and parasites per infected cell, respectively. Infectivity index calculation = (% of infected cells X (amastigotes per cell))/number of total counted cells. Image acquisition was made with a Leica TCS-SP5 laser scanning confocal microscope (Leica Microsystems GmbH, Wetzlar, Germany) using the LASAF v.2 software (Leica Microsystems, Wetzlar, Germany) and observed using a 356 nm laser excitation line and an emission bandwidth from 461 nm under a 20× water immersion objective. Further image analysis, including quantitation and processing of figures were made using Fiji (http://fiji.sc/).
# [6] = test system: J774.1 murine macrophages; assay: nonspecific cytotoxicity on mammalian cells, MTT; format: cell-based; conditions: for IC50: Mus musculus, J774.1, 48 h, MTT, read-out: IC50 ± SD (µM) Murine Macrophages; for SI J774.1/T. cruzi: ratio IC50 murine macrophages / IC50 T. cruzi epimastigotes; for SI J774.1/L. amazonensis: ratio IC50 murine macrophages / IC50 L. amazonensis promastigotes
# [7] = solubility (qualitative); format: physicochemical; conditions: for solubility in the conditions of the mammalian cell assay, in words: maximum dose tested 25 µM
# [8] = test system: L. amazonensis (promastigotes); assay: in vitro anti-Leishmania activity, promastigotes, resazurin; format: cell-based; conditions: maximum dose tested 25 µM, read-out: IC50 ± %SD (µM) L. amazonensis
# [9] = test system: T. cruzi blood trypomastigotes of the Y strain; assay: in vivo anti-T. cruzi study (acute Chagas model); design: species or system Trypanosoma cruzi; conditions: BALB/c mice, 50 mg/kg/day oral for 14 days; for Number of Parasites (Chagas): peak of parasitemia; for % of Reduction (Chagas): reduction of parasitemia vs control
# [10] = test system: L. infantum amastigotes in human macrophages (THP-1); assay: human macrophages infected with L. infantum (amastigotes), infectivity index; format: cell-based; conditions: Leishmania infantum, two strains of L. infantum (reference strain and isolated from dogs)
# [11] = test system: L. infantum, L. braziliensis, L. amazonensis promastigotes and T. cruzi epimastigotes; assay: phenotypic screening against parasites in vitro (overall statements)
# Protocol: For the in vitro anti-T. cruzi activity, we used epimastigotes of the Tulahuen 2 strain (genotype TcVI) grown in an axenic milieu (BHI-Tryptose). Cells from a 5–7-days-old culture were inoculated in fresh culture milieu to give an initial concentration of 10^6 cells/mL. The absorbance at 600 nm of the cells in culture was measured every day. […] Control parasites were cultivated in 0.4% DMSO. Each concentration of the compound was evaluated in duplicate. At five days, the absorbance of the culture was measured and compared to the control and the IC50 values calculated for each compound using OriginLab8.5® sigmoidal regression.
# [12] = liver fraction stability study (TLC); format: in vitro ADME; conditions: rat liver fractions, 400 µM, 37 °C, 4 h
# [13] = test system: primary culture of macrophages from mice bone marrow; assay: cytotoxicity on primary culture of macrophages, MTT; format: cell-based; conditions: 25 µM, 48 h, compared with J774.1
# [14] = test system: L. amazonensis (IFLA/BR/1967/PH8); assay: in vivo anti-Leishmania study in cutaneous mice model; design: species or system Leishmania amazonensis; conditions: BALB/c mice, 50 mg/kg oral
# [15] = in vivo acute oral toxicity (OECD up and down); conditions: male, B6D2F1, mouse, 2000 mg/kg
# Protocol: Briefly, healthy young adult male B6D2F1 mice (30 days old, 25 to 30 g) were used in this study. Initially, the compound was dissolved in the vehicle described above (3.4 section) and was administered at 2000 mg/kg, by orogastric cannula, to one animal. The animal was fasted, maintained, and observed for 48 h. If the mouse survives, another animal receives the same dose, and 48 h later, a third animal. If there are no toxicity signs the experiment is finished 14 days after administration, with the euthanasia of the animals according to the OECD guidelines. Observations of the general status of the organs were performed after sacrifice.
# [16] = Table 1S, one value printed for p/c
# [17] = Table 1S, read-out: IC50 ± %SD (µM) epimastigotes T. cruzi
# [18] = Table 1S, read-out: IC50 ± %SD (µM) promastigotes L. infantum
# [19] = Trypanosoma cruzi, TULAHUEN, Table 1S, read-out: IC50 ± %SD (µM) epimastigotes T. cruzi
# [20] = Trypanosoma cruzi, TULAHUEN, epimastigotes, maximum dose tested 25 µM, read-out: IC50 ± %SD (µM) T. cruzi
# [21] = Leishmania infantum, promastigotes, maximum dose tested 25 µM, read-out: IC50 ± %SD (µM) L. infantum
SMILES,IC50 [2],IC50 [5],IC50 [6],SI J774.1/T. cruzi [6],melting point,"IC50 [3, 20]","IC50 [4, 21]",IC50 [8],also measured
CSc1ccc(/C=C/C(=O)[C@H]2CCC3C4CC=C5C[C@@H](O)CC[C@]5(C)C4CC[C@@]32C)cc1 (stereo partly shown) [Compound 15],> 25 µM,–,–,–,–,–,–,–,"IC50 [1, 16]: > 25 µM; IC50 [3, 17]: > 25 µM; IC50 [4, 18]: > 25 µM"
"C=CCNC(=S)N/N=C(\C)[C@H]1CC[C@H]2[C@@H]3CC=C4CC(O)CC[C@]4(C)[C@H]3CC[C@]12C (stereo partly drawn) [Compound 9, 1-(3β-Hydroxy-pregn-5-ene-20E-ylidene)-4-Allylthiosemicarbazone]",–,> 25 µM,25 ± 2 µM,3,229 to 233 °C,8 ± 2 µM,> 25 µM,–,"active against the strains isolated from Uruguayan dogs, in words [5]: not; IC50 [3, 19]: 7.8 µM; activity against Leishmania infantum from Fiocruz collection, in words [4]: active; solubility in the conditions of the mammalian cell assay, in words [7]: poorly soluble"
C[C@]12CC[C@H]3[C@@H](CC=C4CC(O)CC[C@@]43C)[C@@H]1CC[C@@H]2C(=O)/C=C/c1ccccc1Cl (stereo partly shown) [Compound 2],23 ± 5 µM,> 25 µM,100 ± 10 µM,8,149 to 151 °C,12 ± 3 µM,> 25 µM,23 ± 5 µM,"active against the strains isolated from Uruguayan dogs, in words [5]: not; SI J774.1/L. amazonensis [6]: 4; activity against Leishmania infantum from Fiocruz collection, in words [4]: active"
"O=C(Cn1ccnc1[N+](=O)[O-])NCc1ccccc1 [Benznidazole, reference compound]",–,–,400 ± 4 µM,57,–,–,–,–,% of Survivals (Chagas) [9]: 100%; Number of Parasites (Chagas) [9]: (0.01 ± 0.01) × 10^6 per mL blood; % of Reduction (Chagas) [9]: 96%
"CC(/C=C/C(=O)[C@H]1CC[C@H]2[C@@H]3CC=C4CC(O)CC[C@]4(C)[C@H]3CC[C@]12C)=C\c1ccco1 (stereo partly drawn) [Compound 16, (2E,4E)-5-(furan-2-yl)-1-((8S,9S,10R,13S,14S,17S)-3-hydroxy-10,13-dimethyl-2,3,4,7,8,9,10,11,12,13,14,15,16,17-tetradecahydro-1H-cyclopenta[a]phenanthren-17-yl)-4-methylpenta-2,4-dien-1-one]",23 ± 3 µM,–,–,–,110 to 113 °C,–,–,–,"IC50 ([1]; Leishmania infantum): > 25 µM; IC50 [3, 19]: > 25 µM; IC50 ([4]; Leishmania infantum, Table 1S, read-out: IC50 ± %SD (µM) promastigotes L. infantum): > 25 µM"
"C[C@]12CC[C@H]3[C@@H](CC=C4CC(O)CC[C@@]43C)[C@@H]1CC[C@@H]2C(=O)/C=C/c1ccc(Cl)cc1 (stereo partly drawn) [Compound 3, (2E)-3-(4-Chlorophenyl)-1-((10R,13S)-2,3,4,7,8,9,10,11,12,13,14,15,16,17-tetradecahydro-3(β)-hydroxy-10,13-dimethyl-1H-cyclo-penta[a]phenanthren-17(β)-yl)prop-2-en-1-one]",> 25 µM,> 25 µM,–,–,159 to 161 °C,> 25 µM,> 25 µM,> 25 µM,–
"C[C@]12CC[C@H]3[C@@H](CC=C4CC(O)CC[C@@]43C)[C@@H]1CC[C@@H]2C(=O)/C=C/C=C/c1ccccc1 (stereo partly drawn) [Compound 6, (2E,4E)-1-((8S,9S,10R,13S,14S,17S)-3-hydroxy-10,13-dimethyl-2,3,4,7,8,9,10,11,12,13,14,15,16,17-tetradecahydro-1H-cyclopenta[a]phenanthren-17-yl)-5-phenylpenta-2,4-dien-1-one]",> 25 µM,> 25 µM,–,–,116 to 119 °C,> 25 µM,> 25 µM,> 25 µM,–
"C[C@]12CC[C@H]3[C@@H](CC=C4CC(O)CC[C@@]43C)[C@@H]1CC[C@@H]2C(=O)/C=C/C=C/c1cccs1 (stereo partly drawn) [Compound 17, (2E,4E)-5-(thiofen-2-yl)-1-((8S,9S,10R,13S,14S,17S)-3-hydroxy-10,13-dimethyl-2,3,4,7,8,9,10,11,12,13,14,15,16,17-tetradecahydro-1H-cyclopenta[a]phenanthren-17-yl)penta-2,4-dien-1-one]",> 25 µM,–,–,–,–,–,–,–,"IC50 [1, 16]: > 25 µM; IC50 [3, 17]: > 25 µM; IC50 [4, 18]: > 25 µM"
"C/C(=N\NC(N)=S)[C@H]1CC[C@H]2[C@@H]3CC=C4CC(O)CC[C@]4(C)[C@H]3CC[C@]12C (stereo partly drawn) [Compound 8, 1-(3β-Hydroxy-pregn-5-ene-20E-ylidene)thiosemicarbazone]",< 22 µM,0.2 ± 0.1 µM,50 ± 3 µM,42,–,1.2 ± 0.3 µM,0.2 ± 0.1 µM,< 22 µM,"IC50 [10]: < 0.2 µM; IC50 ([11]; Trypanosoma cruzi, read-out: IC50 in vitro (abstract)): 0.2 µM; times more active than Miltefosine in vitro ([11]; against Leishmania): five times more active; times more active than Nfx and Bnz in vitro ([11]; against T. cruzi): 35; antiparasitic activity (active: IC50<25 µM), in words ([11]; all parasites/strains tested, maximum dose 25 µM): consistently active against all strains; metabolic stability in cytosolic and microsomal liver fraction [12]: stable; cytotoxicity on primary culture of macrophages, in words [13]: the same results were obtained; SI J774.1/L. amazonensis [6]: >2; SI J774.1/L. infantum ([6]; ratio IC50 murine macrophages / IC50 L. infantum promastigotes): 250; % of Reduction (Leishmaniasis) [14]: 27%; % of Survivals (Leishmaniasis) [14]: 100%; Number of Parasites (Leishmaniasis) ([14]; parasites in the lesion at the end of the experiment): (21 ± 4) × 10^6; % of Survivals (Chagas) [9]: 100%; Number of Parasites (Chagas) [9]: (0.14 ± 0.03) × 10^6 per mL blood; % of Reduction (Chagas) [9]: 62%; LD50 at 14 days [15]: > 2000 mg/kg; solubility in water, in words [7]: poor solubility in water"
"C/C(=N\NC(=S)Nc1ccccc1)[C@H]1CC[C@H]2[C@@H]3CC=C4CC(O)CC[C@]4(C)[C@H]3CC[C@]12C (stereo partly drawn) [Compound 10, 1-(3β-Hydroxy-pregn-5-ene-20E-ylidene)-4-phenylthiosemicarbazone]",–,> 25 µM,25 ± 5 µM,1,215 to 217 °C,25 ± 3 µM,> 25 µM,–,"solubility in the conditions of the mammalian cell assay, in words [7]: poorly soluble"
